Measured values from patent US6028195A, “Piperazine derivatives and process for the preparation thereof” (Samjin Pharmaceutical Co., Ltd., priority 1996, dated 2000).
In brackets after ≈: the same amount, converted by molar mass. Like-named read-outs stand apart in the source and are kept apart here.

Experiments:
[1] = system: A549 (human non-small lung cell); test: SRB assay, in vitro antitumor effect against A549; format: cell-based; conditions: Homo sapiens
Method in brief: (§1)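 SRB read-out at 520 nm after TCA fixation, with time-zero plates collected when drug was added. Cells (5×10^3–2×10^4/well) pre-cultured 24 h, then treated 48 h; final DMSO below 0.5%. Growth/kill response derived from Tz, untreated control and treated OD values.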

[2] = system: SKMEL-2 (human melanoma); test: SRB assay, in vitro antitumor effect against SKMEL-2; format: cell-based; conditions: Homo sapiens; SK-MEL-2, 48 hours; read-out: ED50 (the source's name)
Method in brief: as §1

[3] = system: SKOV-3 (human ovarian); test: SRB assay, in vitro antitumor effect against SKOV-3; format: cell-based; conditions: Homo sapiens; SK-OV-3, 48 hours; read-out: ED50 (the source's name)
Method in brief: as §1

[4] = system: HCT-15 (human colon); test: SRB assay, in vitro antitumor effect against HCT-15; format: cell-based; conditions: Homo sapiens; HCT 15, 48 hours; read-out: ED50 (the source's name)
Method in brief: as §1

[5] = system: mouse leukemia P388 cells; test: In vivo antitumor effects against mouse leukemia P388 cells in BDF1 mice; conditions: P388, ip, abdominal cavity
Protocol: In vivo antitumor effects against mouse leukemia P388 cells.
1) Leukemia P388 cells being transfer-cultured successively in DBA/2 mouse, were grafted into each mouse of a group comprising 8 mice of 6 week old BDF1 mouse with the dose of 1×10^6 cells/0.1 ml. […]
3) With observation everyday, survival times of tested mice were measured. Antitumor activities was determined in such a manner that the increasing ratio(T/C%) of average survival days of drug-treated groups compared with the control group was calculated using the mean survival times of each tested groups.

[6] = system: XF 498 (human CNS); test: SRB assay, in vitro antitumor effect against XF 498; format: cell-based; conditions: Homo sapiens, XF498; XF-498, 48 hours; read-out: ED50 (the source's name)
Method in brief: as §1

[7] = Acute toxicity test (LD50), Litchfield-Wilcoxon method; conditions: mouse, in vivo, ip, male ICR mice, 14 days
Protocol: Acute toxicity test (LD50): Litchfield-Wilcoxon method.
6 weeks old ICR mice(male 30±2.0 g) were fed freely with solid feed and water at room temperature, 23±1° C. and at humidity 60±5%. Sample drugs were injected into the abdominal cavities of mice, while each group comprises 6 mice. Observed during 14 days, external appearances and life or dead were recorded, and then, visible pathogenies were observed from dead animals by dissection. LD50 value was calculated by Litchfiled-wilcoxon method.

[8] = nine everyday, read-out: T/C(%)
[9] = on days 1, 5, 9, read-out: T/C(%)
[10] = A549, 48 hours, read-out: ED50 (the source's name)
[11] = on days 1, 4, 8, read-out: T/C(%)

SMILES | IC50 ([1]; A549, 48 h, read-out: ED50) [µg/mL] | IC50 [2] [µg/mL] | IC50 [3] [µg/mL] | IC50 [4] [µg/mL] | response vs control in vivo at 10 mg/kg [5, 8] [%] | response vs control in vivo at 25 mg/kg [5, 8] [%] | response vs control in vivo at 50 mg/kg [5, 8] [%] | response vs control in vivo at 50 mg/kg [5, 9] [%] | response vs control in vivo at 100 mg/kg [5, 9] [%] | response vs control in vivo at 200 mg/kg [5, 9] [%] | IC50 [6] [µg/mL] | LD50 at 336 h [7] [mg/kg] | IC50 [1, 10] [µg/mL] | response vs control in vivo at 100 mg/kg [5, 8] [%] | response vs control in vivo at 50 mg/kg [5, 11] [%] | response vs control in vivo at 100 mg/kg [5, 11] [%] | response vs control in vivo at 200 mg/kg [5, 11] [%]
COc1cc(OC)cc(N2CCN(C(=O)Nc3cc4ccccc4nc3OC)CC2)c1 [Example 81, 1-[(2-Methoxyquinolin-3-yl)aminocarbonyl]-4-(3,5-dimethoxyphenyl)piperazine] | 0.0032 (≈ 0.00757 µM) | 0.0107 (≈ 0.0253 µM) | 0.0007 (≈ 0.00166 µM) | 0.0054 (≈ 0.0128 µM) | 140 | 140 | 210 | 127 | 146 | 218 | 0.0097 (≈ 0.023 µM) | 1600 |  |  |  |  | 
C=Cc1cc(NC(=O)N2CCN(c3cc(C)cc(C)c3)CC2)c(OC)nc1C [Example 74, 1-[(2-Methoxy-6-methyl-5-vinylpyridin-3-yl)aminocarbonyl]-4-(3,5-dimethylphenyl)piperazine] |  | 0.02 (≈ 0.0526 µM) | 0.0138 (≈ 0.0363 µM) | 0.021 (≈ 0.0552 µM) | 140 | 150 | 250 |  |  |  | 0.026 (≈ 0.0683 µM) | 361 | 0.016 (≈ 0.0421 µM) |  |  |  | 
CCCc1nc(OC)c(NC(=O)N2CCN(c3cc(OC)cc(OC)c3)CC2)cc1C [Example 15, 1-[(2-Methoxy-5-methyl-6-propylpyridin-3-yl)aminocarbonyl]-4-(3,5-dimethoxyphenyl)piperazine] |  | 0.052 (≈ 0.121 µM) | 0.05 (≈ 0.117 µM) | 0.038 (≈ 0.0887 µM) | 110 | 150 |  |  |  |  | 0.035 (≈ 0.0817 µM) | 190 | 0.002 (≈ 0.00467 µM) |  |  |  | 
CCCc1nc(OC)c(NC(=O)N2CCN(c3cc(C)cc(C)c3)CC2)cc1C [Example 16, 1-[(2-Methoxy-5-methyl-6-propylpyridin-3-yl)aminocarbonyl]-4-(3,5-dimethylphenyl)piperazine] |  | 0.038 (≈ 0.0958 µM) | 0.04 (≈ 0.101 µM) | 0.061 (≈ 0.154 µM) |  | 110 | 165 |  |  |  | 0.005 (≈ 0.0126 µM) | 283 | 0.008 (≈ 0.0202 µM) |  |  |  | 
CCCc1cc(NC(=O)N2CCN(c3cc(OC)cc(OC)c3)CC2)c(OC)nc1C [Example 8, 1-[(2-Methoxy-6-methyl-5-propylpyridin-3-yl)aminocarbonyl]-4-(3,5-dimethoxyphenyl)piperazine] |  |  |  |  |  |  |  |  | 104 | 141 |  | 707 |  |  |  |  | 
COc1cc(OC)cc(N2CCN(C(=O)Nc3cc(C(C)O)c(C)nc3OC)CC2)c1 (stereo not shown) [Example 56, 1-{[5-(1-Hydroxyethyl)-2-methoxy-6-methylpyridin-3-yl]aminocarbonyl}-4-(3,5-dimethoxyphenyl)piperazine] |  | 0.01 (≈ 0.0232 µM) | 0.0027 (≈ 0.00627 µM) | 0.045 (≈ 0.105 µM) | 140 | 145 | 165 | 118 | 141 | 227 | 0.013 (≈ 0.0302 µM) | 410 | 0.017 (≈ 0.0395 µM) |  |  |  | 
CCCc1nc(OC)c(NC(=S)N2CCN(c3cccc(O)c3)CC2)cc1C [Example 28, 1-[(2-Methoxy-5-methyl-6-propylpyndin-3-yl)aminothiocarbonyl]-4-(3-hydroxyphenyl)piperazine] |  | 0.001 (≈ 0.0025 µM) | 0.07 (≈ 0.175 µM) | 0.05 (≈ 0.125 µM) |  |  |  |  |  |  | 0.41 (≈ 1.02 µM) | > 2000 | 0.06 (≈ 0.15 µM) |  |  |  | 
COc1nc(C)c(C)cc1NC(=S)N1CCN(c2cc(C)cc(C)c2)CC1 [Example 22, 1-[(5,6-Dimethyl-2-methoxypyridin-3-yl)aminothiocarbonyl]-4-(3,5-dimethylphenyl)piperazine] |  | 0.027 (≈ 0.0702 µM) | 0.006 (≈ 0.0156 µM) | 0.01 (≈ 0.026 µM) |  | 110 | 140 |  |  |  | 0.0053 (≈ 0.0138 µM) | > 2000 | 0.0009 (≈ 0.00234 µM) | 150 |  |  | 
C=Cc1cc(NC(=O)N2CCN(c3cc(OC)cc(OC)c3)CC2)c(OC)nc1C [Example 73, 1-[(2-Methoxy-6-methyl-5-vinylpyridin-3-yl)aminocarbonyl]-4-(3,5-dimethoxyphenyl)piperazine] |  | 0.02 (≈ 0.0485 µM) | 0.0054 (≈ 0.0131 µM) | 0.012 (≈ 0.0291 µM) | 140 | 150 | 180 |  |  |  | 0.013 (≈ 0.0315 µM) | 250 | 0.01 (≈ 0.0242 µM) |  |  |  | 
COc1nc2ccccc2cc1NC(=O)N1CCN(c2cc(C)cc(C)c2)CC1 [Example 82, 1-[(2-Methoxyquinolin-3-yl)aminocarbonyl]-4-(3,5-dimethylphenyl)piperazine] |  | 0.0754 (≈ 0.193 µM) | 0.0249 (≈ 0.0638 µM) | 0.0346 (≈ 0.0886 µM) |  |  |  | 100 | 127 |  | 0.0479 (≈ 0.123 µM) | 700 | 0.0676 (≈ 0.173 µM) |  |  |  | 
COc1cc(C)c(C)cc1NC(=O)N1CCN(c2cc(C)cc(C)c2)CC1 [Example 172, 1-[(4,5-Dimethyl-2-methoxyphenyl)aminocarbonyl]-4-(3,5-dimethylphenyl)piperazine] |  | 0.0233 (≈ 0.0634 µM) | 0.0097 (≈ 0.0264 µM) | 0.018 (≈ 0.049 µM) |  |  |  |  |  |  | 0.0086 (≈ 0.0234 µM) | 723 | 0.0047 (≈ 0.0128 µM) |  | 118 | 127 | 191
COc1nc(C)c(C(C)O)cc1NC(=O)N1CCN(c2cc(C)cc(C)c2)CC1 (stereo not shown) [Example 57, 1-{[5-(1-Hydroxyethyl)-2-methoxy-6-methylpyridin-3-yl]aminocarbonyl}-4-(3,5-dimethylphenyl)piperazine] |  | 0.18 (≈ 0.452 µM) | 0.15 (≈ 0.376 µM) | 0.25 (≈ 0.627 µM) |  |  |  |  |  |  | 0.22 (≈ 0.552 µM) | 455 | 0.27 (≈ 0.678 µM) |  |  |  | 
C=C(C)c1ccccc1N1CCN(C(=O)Nc2cc(C)c(C)cc2OC)CC1 [Example 187, 1-[(4,5-Dimethyl-2-methoxyphenyl)aminocarbonyl]-4-(2-isopropenylphenyl)piperazine] |  |  |  |  |  |  |  |  |  |  |  | 418 |  |  |  |  | 
COc1ccc(C)c(N2CCN(C(=O)Nc3cc(C)c(C)cc3OC)CC2)c1 [Example 184, 1-[(4,5-Dimethyl-2-methoxyphenyl)aminocarbonyl]-4-(5-methoxy-2-methylphenyl)piperazine] |  | 0.17 (≈ 0.443 µM) | 0.34 (≈ 0.887 µM) | 0.2 (≈ 0.522 µM) |  |  |  |  |  |  | 0.12 (≈ 0.313 µM) | 309 | 0.28 (≈ 0.73 µM) |  |  |  | 
